The values below are quoted from earlier work in patent publication US20040005304A1, “Novel compositions and methods for treating neurological disorders and associated gastrointestinal conditions” (MAK Wood, Inc., priority 2002, published 2004).

The subject of the series is DPPIV. Particulars: cultured mouse intestinal wall cells (enterocyte cells).

Consider `O=C[C@H](O)[C@@H](O)[C@@H](O)[C@H](O)CO` [galactose], for which the “expression of DPPIV” value is on record as “increase the expression of DPPIV”.
